Measured values published in paper PMC7601839, “Anti-Acne Effects of Cembrene Diterpenoids from the Cultured Soft Coral Sinularia flexibilis” (Marine Drugs, 2020).

Legend:
[1] = system: LPS-induced RAW 264.7 cells (NO production); test: NO production (Griess) in LPS-induced RAW 264.7 cells; type: cell-based; conditions: for inhibition at 20 µM / IC50: Mus musculus, RAW264.7, 24 h; for IC50: read-out: IC50 Value of NO Inhibition
Experimental: (§1) Anti-inflammatory effects were analyzed in RAW 264.7 cells, which were cultured in DMEM with 10% FBS, 1% L-glutamine, and 1% penicillin-streptomycin, and maintained at 37 °C in a 5% CO2 atmosphere. RAW 264.7 cells (4.0 × 10^5 cells/mL) were seeded in 96-well plates and co-treated with LPS (500 ng/mL) and test samples. After 24 h, NO production was determined by Griess reagent, and the absorption was detected at 530 nm. The percentage inhibition of NO production was presented as the anti-inflammatory activity. PGE2 concentrations in cell culture media were determined with a PGE2 enzyme-linked immunosorbent assay (ELISA) kit (Enzo Life Sciences, Farmingdale, NY, USA). The survival rate of RAW 264.7 cells was detected using an MTT assay.

[2] = Survival rate of RAW 264.7 cells by MTT assay; type: cell-based; conditions: mouse, LPS-induced RAW 264.7 cells, read-out: Cell Viability (%)
Experimental: as §1

[3] = system: LPS-induced RAW 264.7 cells (PGE2 production); test: PGE2 production (ELISA) in LPS-induced RAW 264.7 cells; type: cell-based; conditions: for inhibitory effect on prostaglandin E2 (PGE2) production: 24 h
Experimental: as §1

[4] = system: HKC-induced RAW 264.7 cells (NO production); test: NO production (Griess) in heat-killed C. acnes (HKC)-induced RAW 264.7 cells; type: cell-based; conditions: Mus musculus, RAW264.7, 24 h, read-out: IC50 Value of NO Inhibition
Experimental: (§2) C. acnes (4 × 10^8 cfu/mL) was heated at 80 °C for 30 min and killed. Heat-killed C. acnes (HKC) was freeze-dried as a powder and maintained at 4 °C until use. RAW 264.7 and HaCaT cells were cultured in DMEM with 10% FBS, 1% penicillin-streptomycin, and 1% L-glutamine at 37 °C in a 5% CO2 atmosphere. RAW 264.7 cells (4 × 10^5 cells/mL) and HaCaT cells (10^5 cells/mL) were seeded in six-well plates and co-treated with HKC (300 μg/mL) and test samples [24]. After 24 h, NO production was determined by adding the Griess reagent in the cell culture medium, and the absorption was measured in an ELISA reader at 530 nm. The sample culture medium was removed, and RAW 264.7 cells and HaCaT cells were washed with PBS.

p-ERK [5] = test: Western blot of p-ERK in LPS-induced RAW 264.7 cells; type: cell-based; conditions: 30 min, SC-2 2.5–20 μM, SC-7 5–40 μM, SC-9 2.5–20 μM
Experimental: (§3) Whole-cell lysates were prepared using radioimmunoprecipitation (RIPA) assay. Proteins in lysate samples (30 μg) were analyzed using 10% sodium dodecylsulfate-polyacrylamide gel electrophoresis (SDS-PAGE). Gels were transferred to nitrocellulose membranes and probed with primary iNOS (clone N-20), COX-2 (clone C-20), p-ERK (clone N-20), p-JNK (clone N-20), and glyceraldehyde-3-phosphate dehydrogenase (GAPDH; clone 6C5) antibodies (Santa Cruz Biotechnology, Santa Cruz, CA, USA). Membranes were visualized with a BCIP/NBT kit (Gibco BRL, Grand Island, NY, USA). Protein expression was quantified using the Azure Biosystem C300 Imaging System. GAPDH expression was used as an internal control to compare with protein expressions of iNOS, COX-2, p-ERK, and p-JNK [24].

p-JNK [6] = test: Western blot of p-JNK in LPS-induced RAW 264.7 cells; type: cell-based; conditions: 30 min, SC-2 2.5–20 μM, SC-7 5–40 μM, SC-9 2.5–20 μM
Experimental: as §3

COX-2 [7] = test: Western blot of COX-2 in LPS-induced RAW 264.7 cells; type: cell-based; conditions: 6 h and 24 h
Experimental: as §3

iNOS [8] = test: Western blot of iNOS in LPS-induced RAW 264.7 cells; type: cell-based; conditions: 24 h
Experimental: as §3

p-ERK [9] = test: Western blot of p-ERK in HKC-treated RAW 264.7 cells; type: cell-based; conditions: SC-2 2.5–20 μM, SC-7 5–40 μM, SC-9 2.5–20 μM
Experimental: as §3, §2

p-JNK [10] = test: Western blot of p-JNK in HKC-treated RAW 264.7 cells; type: cell-based; conditions: SC-2 2.5–20 μM, SC-7 5–40 μM, SC-9 2.5–20 μM
Experimental: as §3, §2

iNOS [11] = test: Western blot of iNOS in HKC-treated RAW 264.7 cells; type: cell-based
Experimental: as §3, §2

COX-2 [12] = test: Western blot of COX-2 in HKC-treated RAW 264.7 cells; type: cell-based
Experimental: as §3, §2

HaCaT cells = test: Cytotoxicity analysis in HaCaT cells; type: cell-based, human; conditions: for growth inhibition of HaCaT cells: at high doses
p-ERK [13] = test: Western blot of p-ERK in HKC-treated HaCaT cells; type: cell-based, human; conditions: 30 min after HKC induction
Experimental: as §3, §2

[14] = system: Testosterone-induced HaCaT cells; test: Anti-proliferative activity in testosterone-treated HaCaT cells (MTT); type: cell-based, human; conditions: for testosterone-induced HaCaT cell proliferation: SC-2 1.25–5, SC-7 2.5–10, SC-9 0.08–0.32 μM, 48 h
Experimental: (§4) HaCaT cells (10^5 cells/mL) were seeded in 96-well plates and co-treated with testosterone (5 μg/mL) or DHT (5 μg/mL) and test samples with no cytotoxicity for 48 h. Cell proliferative activity was detected by an MTT assay.

[15] = system: Dihydrotestosterone-induced HaCaT cells; test: Anti-proliferative activity in dihydrotestosterone-treated HaCaT cells (MTT); type: cell-based, human; conditions: for keratinocyte over-proliferation by DHT: HaCaT keratinocytes
Experimental: as §4

iNOS [16] = system: iNOS; parameters: method as in PMID 23774887; conditions: LPS-stimulated RAW264.7 macrophage cells; cited from earlier work
COX-2 [17] = system: COX-2; parameters: method as in PMID 23774887; conditions: LPS-stimulated RAW264.7 macrophage cells; cited from earlier work
[18] = Homo sapiens, testosterone-induced HaCaT cells
[19] = Homo sapiens, dihydrotestosterone-induced HaCaT cells

Molecule: C=C(C(=O)O)[C@@H]1CC[C@@](C)(O)[C@@H]2CC[C@@](C)(O2)[C@@H](OC(C)=O)CC[C@]2(C)O[C@H]2C1 [SC-6, dendronpholide F]
- inhibitory effects on NO expression [1]: no inhibitory effects
- inhibition at 20 µM [1]: -15.1%
- viability at 24 h, 20 µM [2]: 96.1 ± 0.4%

Molecule: C=C1C(=O)OC2(C)CCC1CC1OC1(C)CCC(OC(C)=O)C1(C)CCC2O1 (stereo not drawn) [SC-7, 3,4:8,11-bisepoxy-7-acetoxycembra-15(17)-en-1,12-olide]
- inhibition at 20 µM [1]: 50.2 ± 5.5%
- IC50 [1]: 15.2 ± 0.25 µM
- viability at 24 h, 20 µM [2]: 96.1 ± 8.4%
- inhibitory effect on prostaglandin E2 (PGE2) production [3]: no inhibitory effect
- IC50 [4]: 7.42 ± 0.4 µM
- p-ERK protein expression (p-ERK [5]): dose-dependent inhibitory effects
- p-JNK protein expression (p-JNK [6]): dose-dependent inhibitory effects
- COX-2 protein expression (COX-2 [7]): did not present identical COX-2 inhibitory effects
- iNOS protein expression (iNOS [8]): decreased iNOS protein expression
- p-ERK expression (p-ERK [9]): good inhibitory effects
- p-JNK expression (p-JNK [10]): good inhibitory effects
- iNOS expression (iNOS [11]): significant inhibitory effects
- COX-2 expression (COX-2 [12]): no changes
- concentrations with no cytotoxicity to HaCaT cells (HaCaT cells): 5000 to 40000 nM
- p-ERK protein expression (p-ERK [13]): significant inhibitory effects
- inhibition at 2.5 µM [14, 18]: 13.2 ± 0.7%
- inhibition at 5 µM [14, 18]: 14 ± 2%
- inhibition at 10 µM ([14]; Homo sapiens, testosterone-induced HaCaT cells, 10 μM): 20.8 ± 0.9%
- testosterone-induced HaCaT cell proliferation [14]: significantly decreased
- keratinocyte over-proliferation by DHT [15]: inhibited keratinocyte over-proliferation
- inhibition at 2.5 µM [15, 19]: 9.5 ± 3.2%
- inhibition at 5 µM [15, 19]: 13.1 ± 2.9%
- inhibition at 10 µM ([15]; Homo sapiens, dihydrotestosterone-induced HaCaT cells, 10 μM): 13.8 ± 0.8%
- accumulation of the proinflammatory iNOS protein (iNOS [16]): significantly inhibit

Molecule: flexibilisolides C
- accumulation of the proinflammatory iNOS protein (iNOS [16]): significantly inhibit
- accumulation of COX-2 protein (COX-2 [17]): could reduce

Molecule: flexibilisolides D
- accumulation of the proinflammatory iNOS protein (iNOS [16]): significantly inhibit

Molecule: C=C1C(=O)O[C@@H]2C[C@H]1CC[C@]1(C)O[C@H]1CC/C(C)=C/CC[C@]2(C)O [SC-9, sinularin]
- inhibition at 20 µM [1]: 102 ± 1.4%
- IC50 [1]: 3.85 ± 0.25 µM
- viability at 24 h, 20 µM [2]: 98.9%
- inhibitory effect on prostaglandin E2 (PGE2) production [3]: no inhibitory effect
- IC50 ([3]; Mus musculus, RAW264.7, 6 h, read-out: IC50 Value of PGE2 Inhibition): 6.22 µM
- IC50 [4]: 2.81 ± 0.2 µM
- p-ERK protein expression (p-ERK [5]): dose-dependent inhibitory effects
- p-JNK protein expression (p-JNK [6]): dose-dependent inhibitory effects
- COX-2 protein expression (COX-2 [7]): more significant COX-2 inhibitory effects at 6 h than that at 24 h
- iNOS protein expression (iNOS [8]): decreased iNOS protein expression
- p-ERK expression (p-ERK [9]): good inhibitory effects
- p-JNK expression (p-JNK [10]): good inhibitory effects
- iNOS expression (iNOS [11]): significant inhibitory effects
- COX-2 expression (COX-2 [12]): no changes
- concentrations with no cytotoxicity to HaCaT cells (HaCaT cells): 312 to 2500 nM
- growth inhibition of HaCaT cells (HaCaT cells): caused growth inhibition
- p-ERK protein expression (p-ERK [13]): significant inhibitory effects
- inhibition at 0.08 µM ([14]; Homo sapiens, testosterone-induced HaCaT cells, 0.08 μM): 6.5 ± 0.5%
- inhibition at 0.16 µM ([14]; Homo sapiens, testosterone-induced HaCaT cells, 0.16 μM): 11.5 ± 1.3%
- inhibition at 0.32 µM ([14]; Homo sapiens, testosterone-induced HaCaT cells, 0.32 μM): 19.1 ± 1.3%
- testosterone-induced HaCaT cell proliferation [14]: significantly decreased
- keratinocyte over-proliferation by DHT [15]: inhibited keratinocyte over-proliferation
- inhibition at 0.08 µM ([15]; Homo sapiens, dihydrotestosterone-induced HaCaT cells, 0.08 μM): 8.5 ± 0.7%
- inhibition at 0.16 µM ([15]; Homo sapiens, dihydrotestosterone-induced HaCaT cells, 0.16 μM): 16 ± 0.7%
- inhibition at 0.32 µM ([15]; Homo sapiens, dihydrotestosterone-induced HaCaT cells, 0.32 μM): 18 ± 3.1%

Molecule: C/C1=C\CC[C@](C)(O)[C@H]2C[C@@H](CC[C@]3(C)O[C@H]3CC1)[C@H](C)C(=O)O2 [SC-10, dihydrosinularin]
- inhibitory effects on NO expression [1]: no inhibitory effects
- inhibition at 20 µM [1]: 28.2 ± 4.6%
- viability at 24 h, 20 µM [2]: 117 ± 1.9%

Molecule: C=C1C(=O)OC2(C)CCC1CC1OC1(C)CCC=C(C)CCC2=O (stereo not drawn) [SC-2, 11-dehydrosinulariolide]
- inhibition at 20 µM [1]: 92.4 ± 3%
- IC50 [1]: 5.66 ± 0.19 µM
- viability at 24 h, 20 µM [2]: 102 ± 9.4%
- inhibitory effect on prostaglandin E2 (PGE2) production [3]: no inhibitory effect
- IC50 [4]: 5.81 ± 0.4 µM
- p-ERK protein expression (p-ERK [5]): dose-dependent inhibitory effects
- p-JNK protein expression (p-JNK [6]): dose-dependent inhibitory effects
- COX-2 protein expression (COX-2 [7]): did not present identical COX-2 inhibitory effects
- iNOS protein expression (iNOS [8]): decreased iNOS protein expression
- p-ERK expression (p-ERK [9]): good inhibitory effects
- p-JNK expression (p-JNK [10]): good inhibitory effects
- iNOS expression (iNOS [11]): significant inhibitory effects
- COX-2 expression (COX-2 [12]): no changes
- concentrations with no cytotoxicity to HaCaT cells (HaCaT cells): 1250 to 10000 nM
- growth inhibition of HaCaT cells (HaCaT cells): caused growth inhibition
- p-ERK protein expression (p-ERK [13]): significant inhibitory effects
- inhibition at 1.25 µM ([14]; Homo sapiens, testosterone-induced HaCaT cells, 1.25 μM): 11.9 ± 5.5%
- inhibition at 2.5 µM [14, 18]: 13.5 ± 1.1%
- inhibition at 5 µM [14, 18]: 17.4 ± 2.8%
- testosterone-induced HaCaT cell proliferation [14]: significantly decreased
- keratinocyte over-proliferation by DHT [15]: inhibited keratinocyte over-proliferation
- inhibition at 1.25 µM ([15]; Homo sapiens, dihydrotestosterone-induced HaCaT cells, 1.25 μM): 10.6 ± 3%
- inhibition at 2.5 µM [15, 19]: 12.3 ± 3.1%
- inhibition at 5 µM [15, 19]: 16.8 ± 4%
- accumulation of the proinflammatory iNOS protein (iNOS [16]): significantly inhibit
- accumulation of COX-2 protein (COX-2 [17]): could reduce

Molecule: C=C1C(=O)O[C@]2(C)CC[C@@H]1C[C@@H]1O[C@@]1(C)C/C=C/[C@@](C)(OO)CCC2=O [flexilarin D]
- accumulation of the proinflammatory iNOS protein (iNOS [16]): significantly inhibit

Molecule: C=C1C(=O)O[C@]2(C)CC[C@@H]1C[C@@H]1O[C@@]1(C)CC/C=C(\C)CC[C@H]2O [11-epi-sinulariolide]
- accumulation of the proinflammatory iNOS protein (iNOS [16]): significantly inhibit
- accumulation of COX-2 protein (COX-2 [17]): could reduce
